Results as given in ChEMBL document CHEMBL1201862, “PubChem BioAssay data set” (2004).
Activity calls are given as the source filed them.

Columns and labels:
[1] = target: T1, Eukaryotic translation initiation factor 2-alpha kinase 3 (Homo sapiens, UniProt Q9NZJ5); assay: Counterscreen assay for PERK inhibitors: Dose response cell-based high throughput screening assay to measure inhibition of PERK at 6 hours. [Related pubchem assays: 1522, 1416 ]; assay type: functional
T1 sequence (Q9NZJ5 whole entry): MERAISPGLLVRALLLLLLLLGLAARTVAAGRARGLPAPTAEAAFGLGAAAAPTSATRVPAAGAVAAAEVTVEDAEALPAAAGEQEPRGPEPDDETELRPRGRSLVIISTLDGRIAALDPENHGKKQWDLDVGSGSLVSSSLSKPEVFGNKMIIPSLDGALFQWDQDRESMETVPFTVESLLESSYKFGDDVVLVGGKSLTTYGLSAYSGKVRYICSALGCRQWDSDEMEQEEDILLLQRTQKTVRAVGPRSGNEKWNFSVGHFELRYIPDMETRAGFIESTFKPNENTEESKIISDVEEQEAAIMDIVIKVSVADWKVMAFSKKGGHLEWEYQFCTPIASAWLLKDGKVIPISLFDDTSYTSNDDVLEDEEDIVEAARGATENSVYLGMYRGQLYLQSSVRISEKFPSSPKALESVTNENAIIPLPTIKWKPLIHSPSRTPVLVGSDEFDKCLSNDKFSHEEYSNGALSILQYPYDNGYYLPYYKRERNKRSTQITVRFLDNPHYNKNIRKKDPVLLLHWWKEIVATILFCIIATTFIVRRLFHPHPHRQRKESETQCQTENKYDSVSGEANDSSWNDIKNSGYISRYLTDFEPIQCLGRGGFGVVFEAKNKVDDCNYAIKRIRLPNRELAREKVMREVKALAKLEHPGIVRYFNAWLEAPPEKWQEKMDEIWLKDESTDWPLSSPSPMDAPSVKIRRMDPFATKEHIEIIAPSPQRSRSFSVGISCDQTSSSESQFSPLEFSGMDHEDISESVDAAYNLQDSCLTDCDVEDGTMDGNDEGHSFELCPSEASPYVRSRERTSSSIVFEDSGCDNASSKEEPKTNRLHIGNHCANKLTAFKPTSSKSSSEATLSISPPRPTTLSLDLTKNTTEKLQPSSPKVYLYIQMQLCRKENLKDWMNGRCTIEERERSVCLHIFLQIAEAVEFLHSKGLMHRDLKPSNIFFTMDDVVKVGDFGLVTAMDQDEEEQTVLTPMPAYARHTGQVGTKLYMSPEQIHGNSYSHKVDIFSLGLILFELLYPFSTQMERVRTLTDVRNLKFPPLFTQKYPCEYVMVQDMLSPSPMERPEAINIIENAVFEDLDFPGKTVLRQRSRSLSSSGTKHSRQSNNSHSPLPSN

[2] = target: T1, Eukaryotic translation initiation factor 2-alpha kinase 3; assay: Dose response cell-based high-throughput screening assay to measure PERK inhibition. [Related pubchem assays: 1416 ]; assay type: functional
Trypsin = Trypsin (Sus scrofa, UniProt P00761); assay: trypsin protease activity blockade – biochemical, quenched peptide fluorescence, cherry-pick, selectivity assay for Rce1 protease inhibitor project, dose response (AID 488789)
Chain of Trypsin (P00761 whole entry): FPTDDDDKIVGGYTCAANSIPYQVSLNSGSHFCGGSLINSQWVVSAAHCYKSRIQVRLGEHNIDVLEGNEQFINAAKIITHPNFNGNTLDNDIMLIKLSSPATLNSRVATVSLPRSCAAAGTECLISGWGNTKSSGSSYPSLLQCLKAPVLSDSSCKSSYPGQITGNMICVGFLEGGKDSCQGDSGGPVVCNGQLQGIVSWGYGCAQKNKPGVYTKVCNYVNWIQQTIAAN

CAAX prenyl protease 2 = CAAX prenyl protease 2 (Saccharomyces cerevisiae S288c, UniProt Q03530); assay type: biochemical
Chain of CAAX prenyl protease 2 (Q03530 whole entry): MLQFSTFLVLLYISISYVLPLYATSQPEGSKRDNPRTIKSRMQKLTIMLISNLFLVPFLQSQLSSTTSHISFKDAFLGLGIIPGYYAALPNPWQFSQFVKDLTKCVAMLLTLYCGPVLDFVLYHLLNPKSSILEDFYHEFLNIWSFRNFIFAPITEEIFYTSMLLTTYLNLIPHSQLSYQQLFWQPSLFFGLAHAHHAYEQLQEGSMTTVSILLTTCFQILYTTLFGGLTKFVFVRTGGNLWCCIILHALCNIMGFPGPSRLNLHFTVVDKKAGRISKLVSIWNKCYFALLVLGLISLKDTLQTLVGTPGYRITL

[3] = target: Eukaryotic translation initiation factor 4E (Mus musculus, UniProt P63073); assay: blockers of eIF4G binding by eIF4E – biochemical, TR-FRET, dose response (AID 855); assay type: functional;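 also: potency for disrupting eIF4E binding to eIF4GI seen as loss of FRET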
Chain of Eukaryotic translation initiation factor 4E (P63073 whole entry): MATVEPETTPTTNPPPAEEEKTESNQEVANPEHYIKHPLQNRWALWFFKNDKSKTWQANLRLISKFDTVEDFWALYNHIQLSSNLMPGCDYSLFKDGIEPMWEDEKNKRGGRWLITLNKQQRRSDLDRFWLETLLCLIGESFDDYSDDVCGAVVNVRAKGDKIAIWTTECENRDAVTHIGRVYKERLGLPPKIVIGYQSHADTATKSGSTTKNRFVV

[4] = microbe, parasite or virus in culture; assay type: functional; conditions: Mycobacterium tuberculosis
INS1 = assay: INS-1E survival protection against cytokine death – cell-based, luminescence, retest, dose response (AID 449756); assay type: functional; conditions: Rattus norvegicus;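 also: cell death triggered by IL-1 beta plus TNF-alpha plus IFN-gamma mixture; protective hits raise ATP signal compared with cytokine alone wells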
[5] = loss of viability in HepG2 cells – cell-based, CellTiter-Glo, cherry-picked, cytotoxicity control for Shn3 inhibitor project, dose response (AID 624134); assay type: functional
[6] = target: Neurotensin receptor type 1 (Homo sapiens, UniProt P30989); assay type: functional;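 also: Image-based confirmatory dose-response assay measuring agonist activity at NTR1; NTR1-expressing U2OS osteosarcoma cells imaged for beta-arrestin GFP spot formation; agonist potency where compounds increase beta-arrestin recruitment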
Chain of Neurotensin receptor type 1 (P30989 whole entry): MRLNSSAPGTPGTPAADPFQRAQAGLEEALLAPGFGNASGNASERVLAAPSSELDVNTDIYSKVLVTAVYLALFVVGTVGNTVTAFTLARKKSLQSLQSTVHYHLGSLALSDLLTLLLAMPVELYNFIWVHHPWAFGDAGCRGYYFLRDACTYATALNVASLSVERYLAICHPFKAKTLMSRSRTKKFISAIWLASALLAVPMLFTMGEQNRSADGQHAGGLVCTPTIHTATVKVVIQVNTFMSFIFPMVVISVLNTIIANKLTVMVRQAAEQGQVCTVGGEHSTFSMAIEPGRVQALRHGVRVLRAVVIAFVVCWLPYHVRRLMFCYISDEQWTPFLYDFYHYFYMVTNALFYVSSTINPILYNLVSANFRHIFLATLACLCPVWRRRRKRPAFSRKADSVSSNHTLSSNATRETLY

Streptokinase A = target: T2, Streptokinase A (Streptococcus pyogenes serotype M1, UniProt P10520); assay: viability-normalized secreted streptokinase activity reduction – plasminogen activation absorbance, OD405, dose response (AID 1914); assay type: functional, Streptococcus pyogenes M1 GAS;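 also: secreted streptokinase activity via plasminogen activation per viability signal from cell pellet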
T2 sequence (P10520 whole entry): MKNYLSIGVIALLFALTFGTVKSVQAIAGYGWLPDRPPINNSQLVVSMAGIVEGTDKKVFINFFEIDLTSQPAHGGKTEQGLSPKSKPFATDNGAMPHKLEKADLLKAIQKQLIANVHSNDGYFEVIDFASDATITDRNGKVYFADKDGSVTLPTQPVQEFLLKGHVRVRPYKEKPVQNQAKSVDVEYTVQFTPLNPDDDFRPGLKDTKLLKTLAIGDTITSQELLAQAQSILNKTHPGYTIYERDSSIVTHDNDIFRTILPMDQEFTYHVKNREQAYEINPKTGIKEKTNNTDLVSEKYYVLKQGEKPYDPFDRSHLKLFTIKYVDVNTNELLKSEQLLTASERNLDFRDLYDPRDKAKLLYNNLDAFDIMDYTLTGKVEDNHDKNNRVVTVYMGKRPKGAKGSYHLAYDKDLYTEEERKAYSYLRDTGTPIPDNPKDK

[7] = reduction of Shn3 3'UTR-driven luciferase in osteoblasts – cell-based, Clone20 osteoblasts, firefly luciferase, cherry-picked, dose response (AID 624132); assay type: functional;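 also: firefly luciferase luminescence from reporter carrying the Shn3 3'UTR in osteoblasts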
[8] = test system: Streptococcus sp. 'group A'; assay: Streptococcus pyogenes SK(-)GAS viability under kanamycin – luminescence, BacTiterGlo, confirmation, counter-screen for streptokinase expression inhibitor project, dose response (AID 1900); assay type: functional, organism-based
Streptococcus = assay: GAS UMAA2166 growth inhibition – luminescence, BacTiterGlo, counter-screen for streptokinase expression inhibitor project, dose response (AID 1915); assay type: functional, organism-based;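 also: potency for reduction of bacterial viability or growth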
[9] = non-specific 3'UTR reporter inhibition in Clone20-Shn3RL – cell-based, Renilla luciferase, cherry-picked, counter-screen for Shn3 inhibitor project, dose response (AID 624133); assay type: functional
[10] = viability loss in THP-1 monocytes – THP-1 cells, cytotoxicity control for Vif-APOBEC3G degradation inhibitor project, dose response (AID 1117359); assay type: functional; conditions: THP-1
[11] = target: NACHT, LRR and PYD domains-containing protein 3 (Homo sapiens, UniProt Q96P20); assay: NALP3 inhibitors in yeast, dose response, luminescent (AID 488799); assay type: functional
Chain of NACHT, LRR and PYD domains-containing protein 3 (Q96P20 whole entry, the tested form may be a part): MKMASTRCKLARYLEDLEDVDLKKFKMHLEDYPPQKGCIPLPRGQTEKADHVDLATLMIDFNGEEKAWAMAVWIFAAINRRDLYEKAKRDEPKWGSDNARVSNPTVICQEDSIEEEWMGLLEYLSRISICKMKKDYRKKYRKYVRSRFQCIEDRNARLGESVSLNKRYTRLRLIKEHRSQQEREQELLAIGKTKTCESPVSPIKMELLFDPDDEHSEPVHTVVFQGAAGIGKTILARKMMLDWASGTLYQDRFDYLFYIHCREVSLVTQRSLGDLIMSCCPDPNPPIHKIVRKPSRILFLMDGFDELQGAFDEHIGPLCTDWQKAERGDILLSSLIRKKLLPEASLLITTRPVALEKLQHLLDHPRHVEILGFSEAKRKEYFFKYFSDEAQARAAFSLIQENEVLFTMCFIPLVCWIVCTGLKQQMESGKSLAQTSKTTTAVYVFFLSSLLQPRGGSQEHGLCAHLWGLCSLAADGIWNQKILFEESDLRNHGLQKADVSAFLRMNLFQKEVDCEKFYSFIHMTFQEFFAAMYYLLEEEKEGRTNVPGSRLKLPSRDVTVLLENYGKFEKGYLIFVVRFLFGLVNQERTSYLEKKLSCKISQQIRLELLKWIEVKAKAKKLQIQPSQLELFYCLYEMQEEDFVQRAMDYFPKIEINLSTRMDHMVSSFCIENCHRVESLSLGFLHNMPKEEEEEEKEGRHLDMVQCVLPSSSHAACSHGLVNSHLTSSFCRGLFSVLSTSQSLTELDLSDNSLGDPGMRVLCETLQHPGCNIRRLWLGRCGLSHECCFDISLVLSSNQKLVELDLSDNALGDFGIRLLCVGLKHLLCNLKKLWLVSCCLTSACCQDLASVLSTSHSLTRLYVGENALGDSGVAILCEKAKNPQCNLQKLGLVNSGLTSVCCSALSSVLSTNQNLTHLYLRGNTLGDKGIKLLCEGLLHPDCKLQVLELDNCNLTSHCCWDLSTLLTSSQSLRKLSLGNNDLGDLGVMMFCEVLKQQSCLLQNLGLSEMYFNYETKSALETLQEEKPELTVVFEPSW

[12] = fluconazole-exposed Candida albicans growth modulators – fluorescence, retest, confirmation (AID 2467); assay type: functional, cell-based
[13] = Luminescence Cell-Based Dose Retest to Confirm Inhibitors of Cancer Stem Cells. [Related pubchem assays (depositor defined):AID2717, AID2721]; assay type: functional; conditions: Homo sapiens
[14] = target: T3, Ubiquitin-conjugating enzyme E2 N (Homo sapiens, UniProt P61088); assay type: functional;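 also: Dose-response confirmation in a TR-FRET assay detecting UBC13-driven polyubiquitin chain formation, inhibition measured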
T3 sequence (P61088 whole entry): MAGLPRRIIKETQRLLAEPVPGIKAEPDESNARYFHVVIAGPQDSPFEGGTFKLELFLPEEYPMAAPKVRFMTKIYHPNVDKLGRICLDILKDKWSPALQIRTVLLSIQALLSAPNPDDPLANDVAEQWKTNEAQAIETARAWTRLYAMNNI

[15] = NIH3T3 cell viability loss – ATP luminescence, mouse fibroblasts, counter-screen, dose response (AID 2010); assay type: functional, cell-based;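 also: cells exposed to compound for about 90 hours before reading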
[16] = NIH-3T3 fibroblast cytotoxicity, dose response, cytotoxicity control, cell-based, fluorescence, Alamar Blue, secondary assay (AID 2327); assay type: functional;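 also: NIH-3T3 mouse fibroblasts cultured with fluconazole at 8 µg/mL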
[17] = Trypanosoma cruzi growth suppression in host cells – NIH3T3 host cells, beta-gal luminescence, confirmation (AID 2044); assay type: functional, cell-based;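 also: intracellular parasites grown in NIH/3T3 mouse fibroblasts as host cells; luminescent beta-galactosidase reporter signal from transgenic T. cruzi replicating inside host cells; inhibitors lower the luminescence signal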
[18] = THP-1 cell cytotoxicity, dose response, cytotoxicity control for non-replicating M. tuberculosis project (AID 489025); assay type: functional
Vero [19] = assay: cells; assay type: functional; conditions: Chlorocebus sabaeus
Vero [20] = assay: cells; assay type: functional, cell-based; conditions: Chlorocebus sabaeus
[21] = Vero E6 cell cytotoxicity, dose response, cytotoxicity control for non-replicating M. tuberculosis project, secondary assay (AID 492998); assay type: functional, VeroE6; conditions: Vero C1008
cells = assay type: functional
[22] = target: T4, Short transient receptor potential channel 4 (Mus musculus, UniProt Q9QUQ5); assay: calcium entry via TRPC4 opening agents – cell-based, HEK293 TRPC4/mu-opioid, Fluo-4 calcium, dose response (AID 434937); assay type: functional
T4 sequence (Q9QUQ5 whole entry): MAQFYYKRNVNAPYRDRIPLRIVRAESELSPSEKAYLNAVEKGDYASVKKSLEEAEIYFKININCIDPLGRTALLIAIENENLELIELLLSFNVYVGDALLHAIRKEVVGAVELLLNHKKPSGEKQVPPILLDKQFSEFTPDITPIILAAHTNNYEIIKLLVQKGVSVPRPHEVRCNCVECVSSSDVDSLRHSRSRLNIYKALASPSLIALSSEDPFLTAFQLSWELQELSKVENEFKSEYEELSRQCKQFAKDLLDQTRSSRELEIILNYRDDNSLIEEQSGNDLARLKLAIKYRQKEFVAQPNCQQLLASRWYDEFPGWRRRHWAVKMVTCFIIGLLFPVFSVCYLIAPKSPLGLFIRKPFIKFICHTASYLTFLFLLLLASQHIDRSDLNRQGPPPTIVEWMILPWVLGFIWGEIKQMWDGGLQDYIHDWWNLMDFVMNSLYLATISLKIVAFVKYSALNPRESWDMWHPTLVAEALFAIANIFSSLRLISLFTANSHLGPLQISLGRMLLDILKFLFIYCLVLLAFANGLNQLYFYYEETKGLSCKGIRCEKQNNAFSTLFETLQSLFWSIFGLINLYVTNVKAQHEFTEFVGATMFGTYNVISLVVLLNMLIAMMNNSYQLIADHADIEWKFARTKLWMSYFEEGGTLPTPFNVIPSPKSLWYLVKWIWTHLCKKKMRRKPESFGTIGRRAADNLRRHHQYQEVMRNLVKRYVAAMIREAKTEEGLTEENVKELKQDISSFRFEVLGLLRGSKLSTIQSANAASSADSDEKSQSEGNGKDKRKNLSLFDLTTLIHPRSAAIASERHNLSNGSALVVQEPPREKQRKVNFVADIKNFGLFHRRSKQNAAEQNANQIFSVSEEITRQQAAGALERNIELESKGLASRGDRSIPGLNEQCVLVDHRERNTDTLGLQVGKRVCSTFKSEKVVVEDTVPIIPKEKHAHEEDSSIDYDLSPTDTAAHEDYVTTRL

[23] = target: Alkaline phosphatase, placental type (Homo sapiens, UniProt P05187); assay: human placental alkaline phosphatase inhibition – biochemical, luminescence, confirmation (AID 1512); assay type: functional
Chain of Alkaline phosphatase, placental type (P05187 whole entry): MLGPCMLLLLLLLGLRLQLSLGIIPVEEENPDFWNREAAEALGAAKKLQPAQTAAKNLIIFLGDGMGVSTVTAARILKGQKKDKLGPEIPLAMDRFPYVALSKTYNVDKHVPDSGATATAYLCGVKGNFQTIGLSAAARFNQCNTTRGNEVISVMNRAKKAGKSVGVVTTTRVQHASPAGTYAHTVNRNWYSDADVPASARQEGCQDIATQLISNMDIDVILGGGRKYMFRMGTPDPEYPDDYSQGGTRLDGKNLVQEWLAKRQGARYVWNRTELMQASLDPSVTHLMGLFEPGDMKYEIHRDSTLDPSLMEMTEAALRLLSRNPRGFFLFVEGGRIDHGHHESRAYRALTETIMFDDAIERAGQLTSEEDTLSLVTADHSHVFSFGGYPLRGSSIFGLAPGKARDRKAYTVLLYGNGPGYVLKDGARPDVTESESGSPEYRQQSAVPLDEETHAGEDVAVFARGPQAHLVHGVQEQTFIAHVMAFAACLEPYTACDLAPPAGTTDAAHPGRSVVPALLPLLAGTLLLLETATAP

[24] = target: T5, Alkaline phosphatase, tissue-nonspecific isozyme (Homo sapiens, UniProt P05186); assay: potency against alkaline phosphatase TNAP – biochemical, luminescent, dose response, SAR follow-up (AID 1056)
T5 sequence (P05186 whole entry): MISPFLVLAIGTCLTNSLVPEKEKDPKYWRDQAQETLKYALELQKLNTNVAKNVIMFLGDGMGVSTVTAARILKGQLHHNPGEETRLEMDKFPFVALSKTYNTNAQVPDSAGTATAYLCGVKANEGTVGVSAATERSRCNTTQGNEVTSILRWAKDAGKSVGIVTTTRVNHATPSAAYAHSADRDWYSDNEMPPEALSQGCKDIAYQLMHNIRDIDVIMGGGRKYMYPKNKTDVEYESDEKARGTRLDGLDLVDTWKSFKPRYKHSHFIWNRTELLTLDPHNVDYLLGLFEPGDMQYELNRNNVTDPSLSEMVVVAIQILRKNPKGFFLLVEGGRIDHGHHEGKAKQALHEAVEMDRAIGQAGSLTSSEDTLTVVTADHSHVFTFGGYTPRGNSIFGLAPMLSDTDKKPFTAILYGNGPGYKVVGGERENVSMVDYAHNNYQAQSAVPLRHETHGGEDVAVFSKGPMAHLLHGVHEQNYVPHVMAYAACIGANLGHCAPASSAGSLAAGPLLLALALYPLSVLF

## CC(C)Cn1c(S(=O)(=O)O)nc2ccccc21
[1]
  EC50: > 55.7 µM (not active)
[2]
  EC50: > 55.7 µM (not active)

## N#Cc1c(Cl)nc(Cl)c2c1CCN(Cc1ccccc1)C2
Trypsin
  AC50: 7.02 µM (active)
CAAX prenyl protease 2
  AC50: 22.8 µM (active)

## Cc1ccc(NC(=O)CN2C(=O)S/C(=C/c3ccc(-c4cccc(C(=O)O)c4)o3)C2=O)cc1
[3]
  IC50: 50 µM (inactive)

## Cc1cc(C)n(-c2nc(Nc3ccccc3C(F)(F)F)nc(-n3nc(C)cc3C)n2)n1
[4]
  CC50: 12.4 µM (active)
INS1
  AC50: 4.01 µM (active)
[5]
  AC50: 58.1 µM (active)
[6]
  EC50: 26 µM (inactive)
Streptokinase A
  EC50: > 150 µM (not active)
[7]
  AC50: 5.49 µM (active)
[8]
  EC50: 5.15 µM (active)
Streptococcus
  EC50: 8.12 µM (active)
[9]
  AC50: 5.19 µM (active)
[10]
  CC50: 3.77 µM (active)

## CCCOC(=O)CCCN1C(=O)/C(=C2\SC(=S)N(CCCC(=O)OCCC)C2=O)SC1=S
[1]
  EC50: > 55.7 µM (not active)
[2]
  EC50: > 55.7 µM (not active)

## CCOC(=O)c1ccc2c(c1)nc(COc1ccc(OC)cc1)n2CC
[11]
  IC50: > 100 µM (inactive)

## Cc1cccc(OCc2n(C)c3ccccc3[n+]2CC(=O)OC2CC(C)CCC2C(C)C)c1 (centres undefined)
[12]
  EC50: 0.736 µM (active)
[4]
  CC50: 18.8 µM (active)
INS1
  AC50: 3.61 µM (active)
[13]
  AC50: 3.49 µM (active)
[14]
  IC50: > 20 µM (inactive)
[6]
  EC50: 8.85 µM (active)
[15]
  EC50: > 60 µM (not active)
[16]
  EC50: 11.2 µM (inconclusive)
[17]
  EC50: 0.565 µM (active)

## CCCOc1ccc(C(=O)NNC(=S)NC(=O)c2cccs2)cc1
[12]
  EC50: 0.391 µM (active)
[18]
  CC50: 5.22 µM (active)
Vero [19]
  CC50: 15.6 µM (active)
Vero [20]
  IC50: > 25 µM (active)
[21]
  CC50: 6.29 µM (active)
cells
  IC50: 0.5 µM (active)
[16]
  EC50: 18.5 µM (active)
[22]
  EC50: 3.76 µM (active)
[11]
  IC50: 8.96 µM (active)

## CCN(CC)c1ccc(C(=O)CSc2nc(C)cc(C)n2)cc1
[23]
  IC50: > 100 µM (inactive)
[24]
  IC50: > 100 µM (inactive)

## O=C(O)CNc1ccccc1C(=O)O
CAAX prenyl protease 2
  AC50: 11.3 µM (active)
